Reference: the supplement of paper PMC11451515

System: NOMO1
Experiment: cell viability relative to DMSO control; higher = less cytotoxic
Conditions: 48 h
How it was run: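 Three leukemia lines were tested: NOMO1 and SEM at 500 cells/well and P12-Ichikawa at 1000 cells/well. Each was adapted for at least four passages in each medium and seeded in 5 μl in 1536-well plates, and library compounds in DMSO were pin-dosed from 47 μM to 0.79 nM in 11 threefold steps. After 48 h at 37°C, CellTiter-Glo One luminescence was read. Viability is a percentage relative to DMSO wells on each plate, with cell-free wells as background.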

[1] = HPLM + 10% dialyzed FBS, 0.000781 µM
[2] = HPLM + 10% dialyzed FBS, 0.00234 µM
[3] = HPLM + 10% dialyzed FBS, 0.00702 µM
[4] = HPLM + 10% dialyzed FBS, 0.0211 µM
[5] = HPLM + 10% dialyzed FBS, 0.0632 µM
[6] = HPLM + 10% dialyzed FBS, 0.19 µM
[7] = HPLM + 10% dialyzed FBS, 0.569 µM
[8] = HPLM + 10% dialyzed FBS, 1.71 µM
[9] = HPLM + 10% dialyzed FBS, 5.12 µM
[10] = HPLM + 10% dialyzed FBS, 15.4 µM
[11] = HPLM + 10% dialyzed FBS, 46.1 µM
[12] = RPMI 5 mM glucose + 10% FBS, 0.000781 µM
[13] = RPMI 5 mM glucose + 10% FBS, 0.00234 µM
[14] = RPMI 5 mM glucose + 10% FBS, 0.00702 µM
[15] = RPMI 5 mM glucose + 10% FBS, 0.0211 µM
[16] = RPMI 5 mM glucose + 10% FBS, 0.0632 µM
[17] = RPMI 5 mM glucose + 10% FBS, 0.19 µM
[18] = RPMI 5 mM glucose + 10% FBS, 0.569 µM
[19] = RPMI 5 mM glucose + 10% FBS, 1.71 µM
[20] = RPMI 5 mM glucose + 10% FBS, 5.12 µM
[21] = RPMI 5 mM glucose + 10% FBS, 15.4 µM
[22] = RPMI 5 mM glucose + 10% FBS, 46.1 µM
[23] = RPMI 5 mM glucose + 10% dialyzed FBS, 0.000781 µM
[24] = RPMI 5 mM glucose + 10% dialyzed FBS, 0.00234 µM
[25] = RPMI 5 mM glucose + 10% dialyzed FBS, 0.00702 µM
[26] = RPMI 5 mM glucose + 10% dialyzed FBS, 0.0211 µM
[27] = RPMI 5 mM glucose + 10% dialyzed FBS, 0.0632 µM
[28] = RPMI 5 mM glucose + 10% dialyzed FBS, 0.19 µM
[29] = RPMI 5 mM glucose + 10% dialyzed FBS, 0.569 µM
[30] = RPMI 5 mM glucose + 10% dialyzed FBS, 1.71 µM
[31] = RPMI 5 mM glucose + 10% dialyzed FBS, 5.12 µM
[32] = RPMI 5 mM glucose + 10% dialyzed FBS, 15.4 µM
[33] = RPMI 5 mM glucose + 10% dialyzed FBS, 46.1 µM

Row | SMILES | cell viability [1] | cell viability [2] | cell viability [3] | cell viability [4] | cell viability [5] | cell viability [6] | cell viability [7] | cell viability [8] | cell viability [9] | cell viability [10] | cell viability [11] | cell viability [12] | cell viability [13] | cell viability [14] | cell viability [15] | cell viability [16] | cell viability [17] | cell viability [18] | cell viability [19] | cell viability [20] | cell viability [21] | cell viability [22] | cell viability [23] | cell viability [24] | cell viability [25] | cell viability [26] | cell viability [27] | cell viability [28] | cell viability [29] | cell viability [30] | cell viability [31] | cell viability [32] | cell viability [33]
1 | O.O.CCN1CCN(C(=O)N[C@H](C(=O)N[C@H]2[C@@H]3SC\C(=C(/N3C2=O)C(O)=O)CSC4=NN=N[N]4C)C5=CC=C(O)C=C5)C(=O)C1=O | 77.3% | 86.9% | 106% | 29.4% | 106% | 98.8% | 110% | 104% | 101% | 89.8% | 115% | 81.4% | 93.8% | 88.5% | 19.5% | 95.2% | 100% | 111% | 109% | 101% | 111% | 113% | 77.5% | 92.9% | 93.5% | 32% | 100% | 96.1% | 100% | 101% | 92.4% | 102% | 107%
2 | CC(C)[C@H](N)C(=O)OCCOC[N]1C=NC2=C1\N=C(N)/NC2=O | 102% | 119% | 110% | 122% | 135% | 135% | 133% | 123% | 133% | 113% | 142% |  |  |  |  |  |  |  |  |  |  |  |  |  |  |  |  |  |  |  |  |  | 
3 | COC1=CC=C2/C3=N/CCN3\C(=N/C2=C1OC)NC(=O)C4=CC=CN=C4 | 124% | 132% | 123% | 131% | 121% | 126% | 114% | 111% | 93.2% | 86% | 78.6% | 104% | 115% | 113% | 123% | 132% | 108% | 110% | 114% | 107% | 115% | 92.7% | 116% | 141% | 117% | 127% | 131% | 104% | 103% | 103% | 83.6% | 76.5% | 68%
4 | OC(CN1CCN(c2cccc(Cl)c2)CC1)C(c1ccccc1)c1ccccc1 (configuration not stated) |  |  |  |  |  |  |  |  |  |  |  | 116% | 119% | 133% | 127% | 132% | 126% | 108% | 22.7% | 16.6% | 14.1% | 7.62% | 124% | 118% | 124% | 126% | 138% | 125% | 126% | 31% | 27.8% | 24% | 9.63%
5 | COc1ncc(-c2ccc3c(Nc4cc(Oc5cc(F)cc(F)c5)cc(C(=O)O)c4)c([S+](=O)([O-])NC4CC4)cnc3c2)c(OC)n1 | 112% | 111% | 91.1% | 106% | 113% | 98% | 95.7% | 99.3% | 86.5% | 77.7% | 87.2% | 96.6% | 102% | 89.9% | 95.6% | 100% | 84.1% | 98.3% | 92.3% | 81.9% | 87.7% | 85.3% | 97.2% | 94.4% | 94% | 89% | 92% | 102% | 89.7% | 86.9% | 81.1% | 79.7% | 75.6%
